From PubChem BioAssay (NCI)
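Results reflect a 48-hour exposure of cells in 96-well plates to compound at five concentrations. GI50 is the concentration that inhibits growth by half. TGI is the concentration that stops growth completely.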

Legend:
Experiment in all cases: NCI-60 cell line screen, 48 h
SK-OV-3 ovarian = system: SK-OV-3 ovarian
OVCAR-3 ovarian = system: OVCAR-3 ovarian
A549 NSCLC = system: A549 NSCLC
SNB-19 CNS = system: SNB-19 CNS
EKVX NSCLC = system: EKVX NSCLC
NCI-H460 lung = system: NCI-H460 lung
HOP-92 NSCLC = system: HOP-92 NSCLC
HCT-15 colon = system: HCT-15 colon
LOX IMVI melanoma = system: LOX IMVI melanoma
RPMI-8226 leukemia = system: RPMI-8226 leukemia

| SMILES | TGI (SK-OV-3 ovarian) | TGI (OVCAR-3 ovarian) | TGI (A549 NSCLC) | TGI (SNB-19 CNS) | TGI (EKVX NSCLC) | TGI (NCI-H460 lung) | TGI (HOP-92 NSCLC) | TGI (HCT-15 colon) | TGI (LOX IMVI melanoma) | TGI (RPMI-8226 leukemia) | GI50 (HCT-15 colon) | GI50 (SK-OV-3 ovarian) | GI50 (OVCAR-3 ovarian) | GI50 (LOX IMVI melanoma) | GI50 (A549 NSCLC) | GI50 (RPMI-8226 leukemia) | GI50 (SNB-19 CNS) | GI50 (NCI-H460 lung) | GI50 (HOP-92 NSCLC) | GI50 (EKVX NSCLC) |
| --- | --- | --- | --- | --- | --- | --- | --- | --- | --- | --- | --- | --- | --- | --- | --- | --- | --- | --- | --- | --- |
| COc1ccc2c(c1)CC[C@@H]1C2CC[C@]2(C)C(=O)N(C)C(=O)CC12 (stereo partly specified) | > 100 µM | > 100 µM | > 100 µM | > 100 µM | > 100 µM | > 100 µM | > 100 µM | – | – | – | – | – | – | – | – | – | – | – | – | – |
| Cc1ccc(S(=O)(=O)OC(C=O)C(O)C(O)COC(c2ccccc2)(c2ccccc2)c2ccccc2)cc1 (stereo unspecified) | 28.4 µM | 28.1 µM | 33.3 µM | 31.7 µM | 34.5 µM | 26.9 µM | – | 27.1 µM | 35.2 µM | 36.9 µM | – | – | – | – | – | – | – | – | – | – |
| O=C1/C(=C\c2ccccc2)CN(C(=O)c2ccccc2F)C/C1=C\c1ccccc1 | 5.34 µM | 5.35 µM | 12 µM | 4.15 µM | – | 7.35 µM | 14.2 µM | 4.11 µM | 2.17 µM | 0.72 µM | 1.88 µM | 2.4 µM | 2.36 µM | 0.746 µM | 3.2 µM | 0.125 µM | 1.85 µM | 2.67 µM | 3.18 µM | – |
| CC/C(=C(/CC)c1ccc(OP(=O)([O-])[O-])cc1)c1ccc(OP(=O)([O-])[O-])cc1.N.N.N.N.[Pt+4].[Pt+4] | 17 µM | 8.89 µM | 8.43 µM | – | 41.9 µM | 7.62 µM | 8.93 µM | 45.4 µM | 11.9 µM | > 100 µM | 11.8 µM | 3.85 µM | 2.49 µM | 2.08 µM | 2.45 µM | 4.19 µM | – | 0.933 µM | 3.43 µM | 7.77 µM |
| COc1cccc(C2C3=C(COC3=O)N(CCO)c3cc4c(cc32)CCC4)c1 (stereo unspecified) | – | 0.0591 µM | – | 0.321 µM | > 50 µM | 0.319 µM | – | > 22.2 µM | > 37.1 µM | 11.6 µM | 0.122 µM | 0.0663 µM | 0.018 µM | 0.0934 µM | 0.0982 µM | 0.127 µM | 0.0468 µM | 0.0426 µM | – | 0.133 µM |
| CC1C2CC(CC2=O)C1(C)C (stereo unspecified) | > 100 µM | > 100 µM | > 100 µM | > 100 µM | > 100 µM | > 100 µM | > 100 µM | – | – | – | – | – | – | – | – | – | – | – | – | – |
| CCN1N=CSC12C(=O)N(c1ccccc1)C(=O)N2c1ccccc1 (stereo unspecified) | > 100 µM | > 100 µM | > 100 µM | > 100 µM | > 100 µM | > 100 µM | > 100 µM | – | > 100 µM | – | – | – | – | – | – | – | – | – | – | – |
| COC(=O)[C@@]12C3=NO[C@]1(C(=O)OC)C(O[Si](C)(C)C(C)(C)C)C1OC(C)(C)OC1[C@@H]2[C@@H](OCc1ccccc1)CC3 (stereo partly specified) | > 100 µM | > 100 µM | > 100 µM | > 100 µM | > 100 µM | – | 17.3 µM | > 100 µM | > 100 µM | > 100 µM | – | – | – | – | – | – | – | – | – | – |
| COc1ccc(C(NCCNC(c2ccc(OC)c(OC)c2)c2cc3c(cc2O)OCO3)c2cc3c(cc2O)OCO3)cc1OC (stereo unspecified) | 18.8 µM | 6.82 µM | 32.3 µM | 15.4 µM | 18.7 µM | 18.3 µM | 17.1 µM | 5.21 µM | 3.51 µM | – | – | – | – | – | – | – | – | – | – | – |
